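Each compound was tested at five concentrations against cells in 96-well plates for 48 hours. The concentration for full growth arrest is given as TGI.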
Assays:
Test in all cases: NCI anticancer screen, dose series, 48 h
NCI-H460 lung = tested on: NCI-H460 lung
UACC-257 melanoma = tested on: UACC-257 melanoma
SF-539 CNS = tested on: SF-539 CNS
NCI-H23 lung = tested on: NCI-H23 lung
HOP-62 NSCLC = tested on: HOP-62 NSCLC
OVCAR-5 ovarian = tested on: OVCAR-5 ovarian
SK-OV-3 ovarian = tested on: SK-OV-3 ovarian
SR leukemia = tested on: SR leukemia

Row | Structure (SMILES) | TGI (NCI-H460 lung) [µM] | TGI (UACC-257 melanoma) [µM] | TGI (SF-539 CNS) [µM] | TGI (NCI-H23 lung) [µM] | TGI (HOP-62 NSCLC) [µM] | TGI (OVCAR-5 ovarian) [µM] | TGI (SK-OV-3 ovarian) [µM] | TGI (SR leukemia) [µM]
1 | c1ccc2c(c1)Cn1c-2nc2ccccc21 | > 100 | > 100 | > 100 | > 100 | > 100 | > 100 | > 100 | 
2 | COP(=O)(OC)C1=c2c(C)noc2=C2C=COC2C1=O (stereo not drawn) |  | > 100 | > 100 | > 100 | > 100 | > 100 | > 100 | > 100
3 | CC(C)c1cc2c(cc1S(=O)(=O)O)[C@@]1(C)CCC[C@@](C)(C(=O)O)C1CC2 (stereo partly drawn) | > 100 | > 100 | > 100 | > 100 | > 100 | > 100 | > 100 | > 100
4 | CCC(=O)NCC1CCCN2CCCCC12 (stereo not drawn) | > 100 | > 100 | > 100 | > 100 |  |  | > 100 | 
5 | [N-]=[N+]=NC(c1ccccc1)(c1ccccc1)c1ccccc1 | 33 | 31.4 | 31 | 42.4 | 42.2 | 30.1 | > 100 | 
6 | CC(=O)c1c2c(c3ccccc3c1O)O[C@@H]1OCC[C@H]21 | > 100 | > 100 | > 100 | > 100 | > 100 | > 100 | > 100 | > 100
7 | O=C(C1OC1c1ccc(Br)cc1O)C12CC3CC(CC(C3)C1)C2 (stereo not drawn) | 85.2 | > 100 | > 100 | 81.3 | 67.9 | > 100 |  | 
8 | COC(=O)C1CC(C=[N+](C)C)=C(SC)N1C(=O)OCc1ccccc1 (stereo not drawn) | > 100 | > 100 |  | > 100 | > 100 | > 100 | > 100 | > 100
9 | CC(=O)Oc1cccc2c1C(=O)CCCC2 | > 100 | > 100 | > 100 | > 100 | > 100 | > 100 | > 100 | > 100
10 | O=C(/C=C/c1ccc2c(c1)OCO2)c1ccc(O)cc1 | 28.6 | 28.8 | 32.5 | 30 | 66.1 | 35.1 | 35.1 | 4.96
11 | COc1nncc2[nH]c(-c3ccccc3)cc12 | > 100 | > 100 | > 100 | > 100 | > 100 | > 100 | > 100 | > 100
12 | CC1=Nc2ccccc2OC(C)=C1N=Nc1ccc2nc(C)[nH]c2c1 | > 100 | > 100 | > 100 | > 100 | > 100 | > 100 | > 100 | > 100
13 | Nn1c(-c2ccccc2)n[nH]c1=O | > 100 | > 100 | > 100 | > 100 | > 100 | > 100 | > 100 | > 100
14 | Nc1nccc(-c2c[nH]c3cc(Br)ccc23)n1 | > 100 | 86.7 | > 100 | 88.4 | > 100 | 49 | 99.4 | 46.7
15 | Cc1ccccc1OC(C)C(=O)NN1C(=O)CSC1c1ccccc1 (stereo not drawn) | > 100 | > 100 | > 100 | > 100 | > 100 | > 100 | > 100 | 48.8
16 | COc1ccc(N=NC(=Nc2ccccc2)c2ccc(N(CCC#N)CCC#N)cc2)cc1 | > 100 | 56.8 | > 100 | > 100 | > 100 | > 100 | > 100 | > 100
17 | CC(=O)Nn1c(=S)[nH]c2ccccc21 | > 100 | > 100 |  | > 100 | > 100 | > 100 | > 100 | > 100
18 | Cc1cccc(Cn2c3c(c4cc(O)ccc42)C(=O)c2ccccc2C3=O)c1 | > 100 | > 100 | 26.9 | > 100 | 40.9 |  | > 29.9 | > 100
19 | COc1ccc(C(=C2C=CC=C2)c2ccc(OC)cc2)cc1 | 86.7 | > 100 | 29.6 | > 100 | > 100 | 88.5 | > 100 | 86.7
20 | NS(=O)(=O)c1nnc(NC(=O)Nc2ccc(Cl)c(Cl)c2)s1 | 55.3 | 42 | 34.1 | 39.4 | 39.7 | 75 | 63.4 | 60.6
21 | CC(C)=CCC[C@@H](C)c1c(O)c(O)c(C)c2nccnc12 | > 100 | > 100 | 60.2 | > 79.1 | > 77.9 | > 100 | > 100 | > 100
22 | O=C(/C=C/c1ccc2c(c1)OCO2)Cc1nc2ncccc2[nH]c1=O | > 100 | > 100 | > 100 | > 100 | > 100 | > 100 | > 100 | > 100
23 | Cc1ccc(N(Cc2ccccc2)Cc2ccccc2)cc1 | > 100 | > 100 | > 100 | > 100 | > 100 | > 100 | > 100 | 
24 | Nc1c(-c2ccc(Cl)c(Cl)c2)c2ccc([N+](=O)[O-])cc2c(=O)n1-c1nc2ccccc2s1 | > 100 | > 100 | 16.3 | 3.13 | > 38.6 | > 74.2 | 28.8 | > 100
25 | C=CC1(CC/C(=C\[N+](=O)[O-])c2ccc(OC)c(OC)c2)OCC(C)(C)CO1 | 55 | 26.8 |  | 37 | 60.7 | 35.2 | 60.4 | 29.4
26 | Oc1ccc2c(c1)c1c(n2CCN2CCOCC2)-c2ccccc2CC1 | 44.2 | > 100 | 44.9 | 82.1 | 59.2 | 60.5 | > 100 | 91.5
27 | Cc1cc(C)nc(NS(=O)(=O)c2ccc(NC(=O)c3ccc4nc5ccccc5c(Nc5ccc(S(N)(=O)=O)cc5)c4c3)cc2)n1 | > 100 | > 100 | > 100 | > 100 | > 100 | > 100 | > 100 | > 100
